Experimental data: article PMC6225228, “Design, Synthesis and Evaluation of N-pyrazinylbenzamides as Potential Antimycobacterial Agents” (Molecules : A Journal of Synthetic Chemistry and Natural …, 2018)
≈ marks a conversion by molar mass, not a printed value. Where two headings read alike, the source gives them in different places.

How the values were obtained:
[1] = system: Mycobacterium smegmatis CCM 4622 (ATCC 607); test: Antimycobacterial microdilution, M. smegmatis; assay type: cell-based; conditions: Mycolicibacterium smegmatis, read-out: M. smeg. ATCC 607 MIC
[2] = system: Aspergillus fumigatus 231; test: Antifungal microdilution broth, AF; assay type: cell-based; conditions: read-out: MIC AF
[3] = system: Candida albicans ATCC 44859; test: Antifungal microdilution broth, CA; assay type: cell-based; conditions: Candida albicans, read-out: MIC CA
Candida tropicalis 156 = test: Antifungal microdilution broth, CT; assay type: cell-based; conditions: read-out: MIC CT
[4] = system: Pseudomonas aeruginosa CCM 1961; test: Antibacterial microdilution broth, PA; assay type: cell-based; conditions: Pseudomonas aeruginosa, read-out: MIC PA
[5] = system: Enterococcus sp. J 14365/08; test: Antibacterial microdilution broth, EF; assay type: cell-based; conditions: Enterococcus, read-out: MIC EF
[6] = system: Staphylococcus epidermidis H 6966/08; test: Antibacterial microdilution broth, SE; assay type: cell-based; conditions: Staphylococcus epidermidis, read-out: MIC SE
Trichosporon asahii 1188 = test: Antifungal microdilution broth, TA; assay type: cell-based; conditions: read-out: MIC TA
[7] = system: M. avium ssp. avium CNCTC My 80/72 (ATCC 15769); test: Antimycobacterial microdilution MABA, M. avium; assay type: cell-based, Mycobacterium avium; conditions: for MIC: Mycobacterium avium, ATCC15769, pH 6.6, read-out: M. avium ATCC 15769 MIC
[8] = system: Lichtheimia corymbifera 272; test: Antifungal microdilution broth, LC; assay type: cell-based; conditions: read-out: MIC LC
[9] = system: M. kansasii CNCTC My 235/80 (ATCC 12478); test: Antimycobacterial microdilution MABA, M. kansasii; assay type: cell-based, Mycobacterium kansasii; conditions: for MIC: Mycobacterium kansasii, ATCC12478, pH 6.6, read-out: M. kans. ATCC 12478 MIC, Middlebrook 7H9 with OADC, pH 6.6, MABA
[10] = system: Staphylococcus aureus CCM 4516/08; test: Antibacterial microdilution broth, SA; assay type: cell-based; conditions: Staphylococcus aureus
[11] = system: Trichophyton interdigitale 445; test: Antifungal microdilution broth, TI; assay type: cell-based; conditions: read-out: MIC TI
[12] = system: Escherichia coli CCM 4517; test: Antibacterial microdilution broth, EC; assay type: cell-based; conditions: Escherichia coli, read-out: MIC EC
[13] = system: Staphylococcus aureus H 5996/08 methicillin resistant; test: microbe, parasite or virus in culture; assay type: cell-based; conditions: Staphylococcus aureus, MRSA, read-out: MIC MRSA
Candida krusei E28 = test: Antifungal microdilution broth, CK; assay type: cell-based; conditions: Pichia kudriavzevii, read-out: MIC CK
[14] = system: Mycobacterium tuberculosis H37Rv CNCTC My 331/88 (ATCC 27294); test: Antimycobacterial microdilution MABA, M. tuberculosis; assay type: cell-based; conditions: for Mtb H37Rv ATCC 27294 MIC: Middlebrook 7H9 with OADC growth supplement, pH = 6.6, MABA; for MIC: Mycobacterium tuberculosis, read-out: Mtb H37Rv ATCC 27294 MIC, Middlebrook 7H9 with OADC growth supplement, pH = 6.6, MABA
Candida glabrata 20/I = test: Antifungal microdilution broth, CG; assay type: cell-based; conditions: Nakaseomyces glabratus, 20/I, read-out: MIC CG
[15] = Aspergillus fumigatus, 231, 24 h
[16] = Aspergillus fumigatus, 231, 48 h
[17] = Trichosporon asahii, 1188, 24 h
[18] = Trichosporon asahii, 1188, 48 h
[19] = Lichtheimia corymbifera, 272, 24 h
[20] = Lichtheimia corymbifera, 272, 48 h
[21] = CCM4516, 24 h, read-out: MIC SA, 24 h
[22] = CCM4516, 48 h, read-out: MIC SA, 48 h
[23] = Trichophyton interdigitale, 445, 72 h
[24] = Trichophyton interdigitale, 445, 120 h
[25] = Middlebrook 7H9 with OADC, pH 6.6, MABA
[26] = CCM4516, read-out: MIC against S. aureus, time not stated

Row | Compound | MIC [1] | MIC [2, 15] | MIC [2, 16] | MIC ([3]; ATCC44859, 24 h) | MIC ([3]; ATCC44859, 48 h) | MIC (Candida tropicalis 156; Candida tropicalis, 156, 24 h) | MIC (Candida tropicalis 156; Candida tropicalis, 156, 48 h) | MIC ([4]; CCM1961, 72 h) | MIC ([4]; CCM1961, 120 h) | MIC ([5]; SP.J14365/08, 24 h) | MIC ([5]; SP.J14365/08, 48 h) | MIC ([6]; H6966/08, 24 h) | MIC ([6]; H6966/08, 48 h) | MIC (Trichosporon asahii 1188; [17]) | MIC (Trichosporon asahii 1188; [18]) | MIC [7] | MIC [8, 19] | MIC [8, 20] | MIC [9] | MIC [10, 21] | other results
1 | COc1ccccc1C(=O)Nc1cncc(Cl)n1 [Compound 3e] | ≥ 500 µg/mL | > 500 µM | > 500 µM | > 500 µM | > 500 µM | > 500 µM | > 500 µM | > 500 µM | > 500 µM | > 500 µM | > 500 µM | > 500 µM | > 500 µM | > 500 µM | > 500 µM | > 100 µg/mL | > 500 µM | > 500 µM | > 100 µg/mL | > 500 µM | MIC [10, 22]: > 500 µM; MIC [11, 23]: > 500 µM; MIC [11, 24]: > 500 µM; MIC ([12]; CCM4517, 24 h): > 500 µM; MIC ([12]; CCM4517, 48 h): > 500 µM; MIC ([13]; 24 h): > 500 µM; MIC ([13]; 48 h): > 500 µM; melting point: 149.1 to 150.7 °C; MIC (Candida krusei E28; E28, 24 h): > 500 µM; MIC (Candida krusei E28; E28, 48 h): > 500 µM; Mtb H37Rv ATCC 27294 MIC [14]: >100 µg/mL; MIC [14]: > 100 µg/mL; MIC (Candida glabrata 20/I; 24 h): > 500 µM; MIC (Candida glabrata 20/I; 48 h): > 500 µM
2 | O=C(Nc1cnc(Cl)cn1)c1ccccc1 [Compound 2a] | ≥ 500 µg/mL | > 500 µM | > 500 µM | > 500 µM | > 500 µM | > 500 µM | > 500 µM | > 500 µM | > 500 µM | > 500 µM | > 500 µM | 500 µM (≈ 117 µg/mL) | 500 µM (≈ 117 µg/mL) | > 500 µM | > 500 µM | > 100 µg/mL | > 500 µM | > 500 µM | > 100 µg/mL | 250 µM (≈ 58.4 µg/mL) | MIC [10, 22]: 250 µM (≈ 58.4 µg/mL); MIC [11, 23]: > 500 µM; MIC [11, 24]: > 500 µM; MIC ([12]; CCM4517, 24 h): > 500 µM; MIC ([12]; CCM4517, 48 h): > 500 µM; MIC ([13]; 24 h): 250 µM (≈ 58.4 µg/mL); MIC ([13]; 48 h): 250 µM (≈ 58.4 µg/mL); melting point: 162.5 to 163.5 °C; MIC (Candida krusei E28; E28, 24 h): > 500 µM; MIC (Candida krusei E28; E28, 48 h): > 500 µM; Mtb H37Rv ATCC 27294 MIC [14]: >100 µg/mL; MIC [14]: > 100 µg/mL; MIC (Candida glabrata 20/I; 24 h): > 500 µM; MIC (Candida glabrata 20/I; 48 h): > 500 µM
3 | COc1ccc(C(=O)Nc2cnccn2)cc1 [Compound 1g] | ≥ 500 µg/mL | > 500 µM | > 500 µM | > 500 µM | > 500 µM | > 500 µM | > 500 µM | > 500 µM | > 500 µM | > 500 µM | > 500 µM | > 500 µM | > 500 µM | > 500 µM | > 500 µM | > 100 µg/mL | > 500 µM | > 500 µM | > 100 µg/mL | > 500 µM | M. avium ATCC 15769 MIC [7, 25]: >100 µg/mL; M. kans. ATCC 12478 MIC [9, 25]: >100 µg/mL; MIC [10, 22]: > 500 µM; MIC [11, 23]: > 500 µM; MIC [11, 24]: > 500 µM; MIC ([12]; CCM4517, 24 h): > 500 µM; MIC ([12]; CCM4517, 48 h): > 500 µM; MIC ([13]; 24 h): > 500 µM; MIC ([13]; 48 h): > 500 µM; melting point: 156 to 156.6 °C; MIC (Candida krusei E28; E28, 24 h): > 500 µM; MIC (Candida krusei E28; E28, 48 h): > 500 µM; MIC [14]: 25 µg/mL (≈ 109 µM); MIC (Candida glabrata 20/I; 24 h): > 500 µM; MIC (Candida glabrata 20/I; 48 h): > 500 µM
4 | COc1ccc(C(=O)Nc2cnc(Cl)cn2)cc1 [Compound 2g] | ≥ 500 µg/mL | > 125 µM | > 125 µM | > 125 µM | > 125 µM | > 125 µM | > 125 µM | > 125 µM | > 125 µM | > 125 µM | > 125 µM | > 125 µM | > 125 µM | > 125 µM | > 125 µM | > 100 µg/mL | > 125 µM | > 125 µM | > 100 µg/mL | > 125 µM | MIC [10, 22]: > 125 µM; MIC [10, 26]: > 125 µM; MIC [11, 23]: > 125 µM; MIC [11, 24]: > 125 µM; MIC ([12]; CCM4517, 24 h): > 125 µM; MIC ([12]; CCM4517, 48 h): > 125 µM; MIC ([13]; 24 h): > 125 µM; MIC ([13]; 48 h): > 125 µM; melting point: 177.8 to 179 °C; MIC (Candida krusei E28; E28, 24 h): > 125 µM; MIC (Candida krusei E28; E28, 48 h): > 125 µM; MIC [14]: > 100 µg/mL; MIC (Candida glabrata 20/I; 24 h): > 125 µM; MIC (Candida glabrata 20/I; 48 h): > 125 µM
5 | COc1ccccc1C(=O)Nc1cnc(Cl)cn1 [Compound 2e] | ≥ 500 µg/mL | > 125 µM | > 125 µM | > 125 µM | > 125 µM | > 125 µM | > 125 µM | > 125 µM | > 125 µM | > 125 µM | > 125 µM | > 125 µM | > 125 µM | > 125 µM | > 125 µM | > 100 µg/mL | > 125 µM | > 125 µM | > 100 µg/mL | > 125 µM | MIC [10, 22]: > 125 µM; MIC [10, 26]: > 125 µM; MIC [11, 23]: > 125 µM; MIC [11, 24]: > 125 µM; MIC ([12]; CCM4517, 24 h): > 125 µM; MIC ([12]; CCM4517, 48 h): > 125 µM; MIC ([13]; 24 h): > 125 µM; MIC ([13]; 48 h): > 125 µM; melting point: 141.2 to 142 °C; MIC (Candida krusei E28; E28, 24 h): > 125 µM; MIC (Candida krusei E28; E28, 48 h): > 125 µM; MIC [14]: > 100 µg/mL; MIC (Candida glabrata 20/I; 24 h): > 125 µM; MIC (Candida glabrata 20/I; 48 h): > 125 µM
